Source: PubChem BioAssay AID330 (DTP/NCI, 2004)
Where “and” joins values, the source holds several entries; their conditions need not be identical. Equal values may be shown once. Toxic doses and inconclusive results are not listed. The calls were made as follows: active = survival T/C of 150% or more; inactive = T/C below 125% in these data.

Tested on: P388 leukemia ip, CD2F1 mice, survival T/C
Experiment: NCI In Vivo Anticancer Drug Screen. Data for tumor model P388 Leukemia (intraperitoneal) in CD2F1 (CDF1) mice
Details: endpoint: median survival time, higher = longer survival
Procedure, shortened: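 Mice carrying the transplanted tumor received test compound or vehicle. Survival was recorded in each group, and the value is the treated-group measurement divided by that of the vehicle-treated control group.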

[1] = dose: 25.0 mg/kg/injection, schedule: Q01DX009 (ip), vehicle: Klucel (hydroxypropylcellulose) (HPC)
[2] = dose: 50.0 mg/kg/injection, schedule: Q01DX009 (ip), vehicle: Klucel (hydroxypropylcellulose) (HPC)
[3] = dose: 100.0 mg/kg/injection, schedule: Q01DX009 (ip), vehicle: Klucel (hydroxypropylcellulose) (HPC)
[4] = dose: 200.0 mg/kg/injection, schedule: Q01DX009 (ip), vehicle: Klucel (hydroxypropylcellulose) (HPC)
[5] = dose: 60.0 mg/kg/injection, schedule: Q01DX005 (ip), vehicle: saline with Tween-80
[6] = dose: 120.0 mg/kg/injection, schedule: Q01DX005 (ip), vehicle: saline with Tween-80
[7] = dose: 240.0 mg/kg/injection, schedule: Q01DX005 (ip), vehicle: saline with Tween-80
[8] = dose: 50.0 mg/kg/injection, schedule: Q01DX009 (ip), vehicle: saline with Tween-80
[9] = dose: 100.0 mg/kg/injection, schedule: Q01DX009 (ip), vehicle: saline with Tween-80
[10] = dose: 25.0 mg/kg/injection, schedule: Q01DX009 (ip), vehicle: saline with Tween-80
[11] = dose: 50.0 mg/kg/injection, schedule: Q01DX009 (ip), vehicle: saline
[12] = dose: 200.0 mg/kg/injection, schedule: Q01DX009 (ip), vehicle: saline

Measured: T/C

CC(=O)Nc1ccc(Cl)cc1C(O)c1ccccc1 (stereo not given)
inactive: dose: 12.5 mg/kg/injection, schedule: Q01DX005 (ip), vehicle: Klucel (hydroxypropylcellulose) (HPC) 89 % of control | dose: 25.0 mg/kg/injection, schedule: Q01DX005 (ip), vehicle: Klucel (hydroxypropylcellulose) (HPC) 91 % of control | dose: 50.0 mg/kg/injection, schedule: Q01DX005 (ip), vehicle: Klucel (hydroxypropylcellulose) (HPC) 98 % of control and 99 % of control

C=C1C(=O)OC2CC1C(O)C/C(C)=C/CC/C(C)=C/C(O)CC2C (stereo not given)
inactive: dose: 6.25 mg/kg/injection, schedule: Q01DX009 (ip), vehicle: Klucel (hydroxypropylcellulose) (HPC) 104 % of control | dose: 12.5 mg/kg/injection, schedule: Q01DX009 (ip), vehicle: Klucel (hydroxypropylcellulose) (HPC) 110 % of control | [1] 104 % of control and 112 % of control

C=C1[C@@H](NC)CC[C@]23C[C@]24CC[C@]2(C)[C@@H]([C@H](C)NC)[C@H](O)C[C@@]2(C)[C@@H]4CC[C@@H]13
inactive: dose: 25.0 mg/kg/injection, schedule: Q01DX001 (ip), vehicle: saline with Tween-80 104 % of control | dose: 50.0 mg/kg/injection, schedule: Q01DX001 (ip), vehicle: saline with Tween-80 99 % of control | dose: 100.0 mg/kg/injection, schedule: Q01DX001 (ip), vehicle: saline with Tween-80 104 % of control

COc1ccc2c(c1OC)C(=O)O/C2=C/c1c(CCN(C)C)cc2c(c1O)OCO2
inactive: dose: 53.0 micrograms/kg/injection, schedule: Q01DX005 (ip), vehicle: Klucel (hydroxypropylcellulose) (HPC) 104 % of control | dose: 105.0 micrograms/kg/injection, schedule: Q01DX005 (ip), vehicle: Klucel (hydroxypropylcellulose) (HPC) 91 % of control | dose: 210.0 micrograms/kg/injection, schedule: Q01DX005 (ip), vehicle: Klucel (hydroxypropylcellulose) (HPC) 96 % of control | dose: 420.0 micrograms/kg/injection, schedule: Q01DX005 (ip), vehicle: Klucel (hydroxypropylcellulose) (HPC) 102 % of control

O=C(/C=C/c1ccc(O)cc1)c1ccccc1
inactive: dose: 50.0 mg/kg/injection, schedule: Q04DX003 (ip), vehicle: saline with Tween-80 105 % of control and 94 % of control | dose: 100.0 mg/kg/injection, schedule: Q04DX003 (ip), vehicle: saline with Tween-80 98 % of control and 105 % of control | dose: 200.0 mg/kg/injection, schedule: Q04DX003 (ip), vehicle: saline with Tween-80 103 % of control and 105 % of control | dose: 400.0 mg/kg/injection, schedule: Q04DX003 (ip), vehicle: saline with Tween-80 105 % of control

CC1(CSc2ccc3ccccc3c2)CC(=O)N1 (stereo not given)
inactive: dose: 100.0 mg/kg/injection, schedule: Q01DX001 (ip), vehicle: suspension in saline 99 % of control | dose: 200.0 mg/kg/injection, schedule: Q01DX001 (ip), vehicle: suspension in saline 99 % of control | dose: 400.0 mg/kg/injection, schedule: Q01DX001 (ip), vehicle: suspension in saline 98 % of control

C=CCc1ccc(O)cc1
inactive: [1] 93 % of control | [2] 99 % of control | [3] 107 % of control | [4] 99 % of control

COc1cc2c(c(-c3cn(C)c4ccccc34)c1OC)OCO2
inactive: [5] 97 % of control | [6] 98 % of control | [7] 97 % of control

CCN(Cc1ccc(C(=O)OC)cc1)c1cccc(NC(C)=O)c1
inactive: [8] 98 % of control | [9] 100 % of control | dose: 200.0 mg/kg/injection, schedule: Q01DX009 (ip), vehicle: saline with Tween-80 99 % of control

O=S1(=O)CCC(c2ccccc2)C1 (stereo not given)
inactive: dose: 12.5 mg/kg/injection, schedule: Q01DX009 (ip), vehicle: saline with Tween-80 100 % of control | [10] 105 % of control | [8] 97 % of control

C[C@H]1C[C@H](c2ccccc2)[C@@H](c2ccccc2)C(=O)O1
inactive: dose: 100.0 mg/kg/injection, schedule: Q04DX003 (ip), vehicle: Klucel (hydroxypropylcellulose) (HPC) 93 % of control | dose: 200.0 mg/kg/injection, schedule: Q04DX003 (ip), vehicle: Klucel (hydroxypropylcellulose) (HPC) 92 % of control | dose: 400.0 mg/kg/injection, schedule: Q04DX003 (ip), vehicle: Klucel (hydroxypropylcellulose) (HPC) 92 % of control

C[n+]1ccc2ccccc2c1-c1c2ccccc2cc[n+]1C
inactive: dose: 12.5 mg/kg/injection, schedule: Q01DX001 (ip), vehicle: saline 115 % of control | dose: 25.0 mg/kg/injection, schedule: Q01DX001 (ip), vehicle: saline 101 % of control | dose: 50.0 mg/kg/injection, schedule: Q01DX001 (ip), vehicle: saline 99 % of control

C=C(C)C(=O)OC1CCC2(C)C(CCC3C2CCC2(C)C(c4ccc(=O)oc4)CCC32O)C1 (stereo not given)
inactive: dose: 12.5 mg/kg/injection, schedule: Q01DX009 (ip), vehicle: saline 86 % of control | dose: 25.0 mg/kg/injection, schedule: Q01DX009 (ip), vehicle: saline 98 % of control | [11] 101 % of control and 94 % of control | [12] 95 % of control

O=S1(=O)CCCN1c1ccccn1
inactive: [5] 102 % of control | [6] 105 % of control | [7] 101 % of control

CCC[CH2][Sn]1([CH2]CCC)[O]C2C(CO)OC(n3ccc(N)nc3=O)C2[O]1 (stereo not given)
inactive: dose: 0.3 mg/kg/injection, schedule: Q03HX015 (ip), vehicle: Klucel (hydroxypropylcellulose) (HPC) 106 % of control | dose: 0.44 mg/kg/injection, schedule: Q03HX015 (ip), vehicle: Klucel (hydroxypropylcellulose) (HPC) 117 % of control | dose: 0.67 mg/kg/injection, schedule: Q03HX015 (ip), vehicle: Klucel (hydroxypropylcellulose) (HPC) 119 % of control and 121 % of control | dose: 0.9 mg/kg/injection, schedule: Q01DX005 (ip), vehicle: Klucel (hydroxypropylcellulose) (HPC) 109 % of control | dose: 1.0 mg/kg/injection, schedule: Q03HX015 (ip), vehicle: Klucel (hydroxypropylcellulose) (HPC) 123 % of control | dose: 1.5 mg/kg/injection, schedule: Q03HX015 (ip), vehicle: Klucel (hydroxypropylcellulose) (HPC) 120 % of control and 124 % of control | dose: 1.56 mg/kg/injection, schedule: Q01DX009 (ip), vehicle: other 102 % of control and 86 % of control | dose: 2.0 mg/kg/injection, schedule: Q01DX005 (ip), vehicle: Klucel (hydroxypropylcellulose) (HPC) 121 % of control | dose: 3.0 mg/kg/injection, schedule: Q01DX005 (ip), vehicle: Klucel (hydroxypropylcellulose) (HPC) 122 % of control | dose: 3.12 mg/kg/injection, schedule: Q01DX009 (ip), vehicle: other 97 % of control

CC(=O)OC1CCC2(C)C(=CCC3C4CC(C5(O)C(=O)Nc6ccccc65)C(=O)C4(C)CCC32)C1 (stereo not given)
inactive: [10] 102 % of control | [8] 93 % of control | [9] 94 % of control

CC(=O)Oc1ccc2c(c1)C(=O)CCCCCCC(=O)O2
inactive: dose: 100.0 mg/kg/injection, schedule: Q01DX001 (ip), vehicle: saline 101 % of control | dose: 200.0 mg/kg/injection, schedule: Q01DX001 (ip), vehicle: saline 95 % of control | dose: 400.0 mg/kg/injection, schedule: Q01DX001 (ip), vehicle: saline 105 % of control

COc1nc(NC2OC(COC(C)=O)C(OC(C)=O)C(OC(C)=O)C2OC(C)=O)c(N=CC=Nc2c(NC3OC(COC(C)=O)C(OC(C)=O)C(OC(C)=O)C3OC(C)=O)nc(OC)n(C)c2=O)c(=O)n1C (stereo not given)
inactive: [5] 86 % of control | [6] 92 % of control | [7] 94 % of control

CC1CN1C(=O)c1cc(C(=O)N2CC2C)cc(C(=O)N2CC2C)c1 (stereo not given)
inactive: dose: 6.25 mg/kg/injection, schedule: Q01DX009 (ip), vehicle: saline with Tween-80 113 % of control

CC(N)C(=O)NC(CC(N)=O)C(=O)O (stereo not given)
inactive: dose: 50.0 mg/kg/injection, schedule: Q01DX005 (ip), vehicle: saline 105 % of control | [11] 101 % of control | dose: 100.0 mg/kg/injection, schedule: Q01DX005 (ip), vehicle: saline 110 % of control | dose: 100.0 mg/kg/injection, schedule: Q01DX009 (ip), vehicle: saline 94 % of control | dose: 200.0 mg/kg/injection, schedule: Q01DX005 (ip), vehicle: saline 94 % of control | [12] 93 % of control

CN(C)NC(=S)SCCC(=O)O
inactive: [2] 99 % of control | [3] 96 % of control | [4] 92 % of control

C=C1CCN(c2cccc(Cl)c2)C1=O
inactive: dose: 4.0 mg/kg/injection, schedule: Q01DX009 (ip), vehicle: saline + alcohol 96 % of control | dose: 8.0 mg/kg/injection, schedule: Q01DX009 (ip), vehicle: saline + alcohol 101 % of control | dose: 16.0 mg/kg/injection, schedule: Q01DX009 (ip), vehicle: saline + alcohol 100 % of control | dose: 32.0 mg/kg/injection, schedule: Q01DX009 (ip), vehicle: saline + alcohol 105 % of control | dose: 64.0 mg/kg/injection, schedule: Q01DX009 (ip), vehicle: saline + alcohol 100 % of control
